Tests used:
[1] = test system: healthy and asthmatic subjects; experiment: Bronchodilator reversibility testing: improvement in FEV1 after albuterol; format: in vivo, human; conditions: 4 puffs (360 μg) of albuterol, mean ± SD
Protocol: (§1) (A) Volume of air exhaled in the first second of a forced expiration (FEV1), a measure of airway obstruction. (B) Improvement in FEV1 after 4 puffs (360 μg) of albuterol (bronchodilator reversibility testing). (C) Provocative concentration of methacholine required to induce a 20% decline in FEV1 (PC20), a measure of airway hyper-responsiveness.
For the purposes of identifying subsets of patients with asthma who differ with respect to the molecular mechanism underlying their airway inflammation and the distinct inflammatory, pathological and clinical phenotypes characteristic of these subsets, we first conducted new analyses on our previously generated epithelial cell microarray data, and we then supplemented these new analyses with review of additional and detailed clinical characterization data (including data on bronchodilator reversibility and allergen skin test reactivity) from these same subjects and newly generated data, including: (i) gene expression profiles in homogenates of bronchial biopsies and alveolar macrophages; (ii) quantitative measures of subepithelial collagen and airway epithelial mucin in bronchial biopsies; (iii) total and differential cell counts in BAL.
(§2) The asthmatic subjects were further analyzed with respect to additional demographic characteristics and clinical features as those described in Example 7. […] This difference in AHR was apparent despite inclusion criteria that required all asthmatics to have significant AHR (all asthmatics <8 mg/ml, all healthy controls >20 mg/ml).

[2] = test system: healthy and asthmatic subjects; experiment: Methacholine challenge testing (PC20, airway hyper-responsiveness); format: in vivo, human; conditions: median
Protocol: as §1
Healthy controls (N=27) had no history of lung disease and lacked airway hyper-responsiveness (PC20 methacholine >16 mg/mL). Certain studies included current smokers without asthma (N=16). Exclusion criteria for all subjects included upper respiratory tract infection in the previous 4 weeks, asthma exacerbation within 6 weeks and current use of salmeterol, astemizole, nedocromil sodium, sodium cromoglycate, methlyxanthines, montelukast or zafirlukast. Subjects underwent baseline evaluation by study physicians (including spirometry and methacholine challenge testing as described previously). Subjects also underwent allergen skin prick testing (ASPT) with a panel of 12 aeroallergens, a positive control and a negative control (Table 6).
The minimal concentration of methacholine in mg/ml required to induce a decrease in FEV1 of 20% (PC20, measured at a screening visit one week prior to bronchoscopy) is a measure of bronchial hyperresponsiveness. This is a measure of bronchial hyper-reactivity (BHR).
as §2

Q: For `CC(C)(C)NCC(O)c1ccc(O)c(CO)c1` (stereo not drawn) [albuterol], which “ΔFEV1 with albuterol (% of baseline)” value ([1]; Healthy Control) is on record?
A: 2.7 ± 3.4% of baseline

Q: And the “ΔFEV1 with albuterol (% of baseline)” value ([1]; asthma, IL13 Signature Low)?
A: 9.7 ± 7.4% of baseline

Q: And the “ΔFEV1 with albuterol (% of baseline)” value ([1]; asthma, IL-13 Signature High)?
A: 12.5 ± 9.8 % of baseline

Q: What does the source list for `CC(=O)OC(C)C[N+](C)(C)C` (stereo not drawn) [Methacholine, methacholine]?
A: Methacholine PC20 (provocative concentration required to cause a 20% decline in FEV1) ([2]; Healthy Control): 64 mg/mL; Methacholine PC20 (provocative concentration required to cause a 20% decline in FEV1) ([2]; asthma, IL13 Signature Low): 0.93 mg/mL; Methacholine PC20 (provocative concentration required to cause a 20% decline in FEV1) ([2]; asthma, IL-13 Signature High): 0.27 mg/mL

From patent US20110123530A1, “COMPOSITIONS AND METHODS FOR TREATING AND DIAGNOSING ASTHMA” (priority 2008, published 2011)
